According to PubChem BioAssay (NCI):
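Interpolation was linear, between the two tested concentrations surrounding the appropriate level; five concentrations were tested over 48 hours in 96-well plates. TGI is the concentration that stops growth completely.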

Key:
Assay in all cases: DTP human tumour cell line panel, 48 h
[1] = system: M14 melanoma
[2] = system: CCRF-CEM leukemia
[3] = system: UO-31 renal
[4] = system: HT29 colon
[5] = system: T-47D breast
[6] = system: MDA-N
[7] = system: RPMI-8226 leukemia
[8] = system: LOX IMVI melanoma
[9] = system: SK-MEL-28 melanoma
[10] = system: SF-295 CNS
[11] = system: MALME-3M melanoma
[12] = system: SK-OV-3 ovarian

| Structure (SMILES) | TGI [1] | TGI [2] | TGI [3] | TGI [4] | TGI [5] | TGI [6] | TGI [7] | TGI [8] | TGI [9] | TGI [10] | TGI [11] | TGI [12] |
| --- | --- | --- | --- | --- | --- | --- | --- | --- | --- | --- | --- | --- |
| CC(=O)OCC(C)C1=C(OC(C)=O)C(=O)C2(C)C/C=C(/C)CC/C=C(\C)CCC(OC(C)=O)C(C)CCC12 (stereo unspecified) | 34.2 µM | 40.9 µM | 31.2 µM | 33.5 µM | 89 µM | 33.5 µM | 35.3 µM | 35 µM | 33.8 µM | 31.3 µM |  |  |
| Oc1cc(O)c2ccc(-c3ccc(O)c(O)c3)[o+]c2c1 | > 100 µM | > 100 µM | > 100 µM | > 100 µM |  | > 100 µM | > 100 µM | > 100 µM | > 100 µM |  | > 100 µM | > 100 µM |
| O=C(O)CSC(CC1(c2ccc(Cl)cc2)NC(=O)CS1)c1ccc(Cl)cc1 (stereo unspecified) | > 100 µM | > 100 µM | > 100 µM | > 100 µM | > 100 µM | > 100 µM | > 100 µM | > 100 µM |  | > 100 µM |  | > 100 µM |
| C(/C=C/c1ccccc1)=Nc1ccc2c(c1)Cc1ccccc1-2 | > 100 µM | > 100 µM | > 100 µM | > 100 µM | > 100 µM | > 100 µM |  | 63 µM | > 100 µM | > 100 µM | > 100 µM |  |
| CCCCCCCCOCC(O)COC(C)C (stereo unspecified) | > 100 µM | 52.8 µM | > 100 µM | > 100 µM |  |  | 51.9 µM | > 100 µM | > 100 µM | > 100 µM | > 100 µM | > 100 µM |
| O=C(Cn1cc(-c2ccccc2)nn1)NC1CCCCC1 | > 100 µM | > 100 µM |  | > 100 µM |  |  | > 100 µM | > 100 µM | > 100 µM | > 100 µM | > 100 µM |  |
| COc1cc2nc(Nc3cccc(Br)c3)nc(Nc3cccc(Br)c3)c2cc1OC | 32.3 µM | 46.5 µM | 29.4 µM | 34.8 µM | 43.7 µM | 32.8 µM |  | 30.4 µM | 33.5 µM | 32.7 µM | 34.7 µM | 34.4 µM |
| O=C(c1ccccc1)c1ccc(N2C(=O)/C(=C/Cc3ccco3)N=C2c2ccccc2)c(N2C(=O)/C(=C/Cc3ccco3)N=C2c2ccccc2)c1 | > 100 µM | 53.5 µM | > 100 µM | > 100 µM | > 100 µM | > 100 µM | 91.3 µM | 58.3 µM | > 100 µM | > 100 µM |  | 83 µM |
| CCc1c(CN)c(CC)c(CNC2=NCCN2)c(CC)c1CNC1=NCCN1 | > 100 µM | > 100 µM | > 100 µM | > 100 µM | > 100 µM | > 100 µM | > 100 µM |  | > 100 µM | > 100 µM | > 100 µM | > 100 µM |
| COc1ccccc1C1C(Cl)C(=O)N1n1cnc2ccccc2c1=O (stereo unspecified) | > 100 µM | > 100 µM | > 100 µM | > 100 µM |  |  | > 100 µM | > 100 µM | > 100 µM | > 100 µM | > 100 µM | > 100 µM |
| CCN(CC)C(=O)Cn1c(-c2ccccc2)cc2ccccc21 | > 100 µM | > 100 µM | 64.5 µM | > 100 µM | > 100 µM | > 100 µM |  | > 100 µM | > 100 µM |  | > 100 µM | > 100 µM |
| c1ccc2c(c1)NCCC(=NC1CCCCC1)N2 | > 100 µM | > 100 µM | > 100 µM | > 100 µM |  | > 100 µM | > 100 µM |  | > 100 µM | > 100 µM | > 100 µM | > 100 µM |
| N#CC(N)c1ccc(OCCCCCCCCCCOc2ccc(C(N)C#N)cc2)cc1 (stereo unspecified) | > 100 µM | 67.8 µM | > 100 µM | > 100 µM | > 100 µM | > 100 µM |  | > 100 µM | > 100 µM | > 100 µM | > 100 µM | > 100 µM |
| FC(F)(F)c1ccc(Cc2nc3cc4ccccc4cc3[nH]2)cc1 | > 100 µM | > 100 µM | > 100 µM | > 100 µM | > 100 µM |  | > 100 µM | > 100 µM | > 100 µM | > 100 µM | > 100 µM |  |
| Nc1ccc2nc3c(nc2c1)C(=O)c1ccccc1-3 | > 100 µM | > 100 µM |  | > 100 µM | > 100 µM | > 100 µM | > 100 µM |  | > 100 µM | > 100 µM | > 100 µM | > 100 µM |
| Oc1ccc([Te]CCNCC[Te]c2ccc(O)cc2)cc1 | 55.3 µM | > 100 µM | 31.7 µM | > 100 µM |  |  | > 100 µM | 43 µM |  | 75.4 µM | 69.3 µM | 98.9 µM |
| Clc1c(Cl)c(Cl)c2c(nnn2C2CCCO2)c1Cl (stereo unspecified) | > 100 µM | 77.9 µM |  | > 100 µM | > 100 µM | 74.3 µM |  |  |  | > 100 µM | 80.4 µM | > 100 µM |
| Nc1ccccc1Nc1ccccc1C(=O)[O-].Nc1ccccc1Nc1ccccc1C(=O)[O-].[Zn+2] | > 100 µM | > 100 µM | > 100 µM | > 100 µM |  |  | > 100 µM |  | > 100 µM | > 100 µM | > 100 µM | > 100 µM |
| C1=NCCN2CCN(CCN=Cc3ccccc3OCc3cccc(n3)COc3ccccc31)CC2 | > 50 µM | > 50 µM | > 50 µM | 18.5 µM |  | 2.72 µM | 19.1 µM |  | > 50 µM | 14.1 µM | 32.4 µM | > 50 µM |
| Clc1ccc(Nc2nnc(CCCCCCCCc3nnc(Nc4ccc(Cl)cc4)o3)o2)cc1 | > 100 µM |  | > 100 µM | > 100 µM |  | > 100 µM | 79.7 µM |  | > 100 µM | > 100 µM | > 100 µM | > 100 µM |
| COc1ccc(N=C2S/C(=N\C(=Nc3ccccc3)SCc3ccccc3)N(c3ccccc3)C2=Nc2ccc(OC)cc2)cc1 | > 100 µM | > 100 µM | > 100 µM | > 100 µM | > 100 µM | > 100 µM | > 100 µM |  | > 100 µM |  | > 100 µM |  |
